Data from patent US11576914B2, “Drug for treating or preventing disorder caused by TGF-β signaling, and application thereof” (THE DOSHISHA, priority 2017, dated 2023).
Several values for one entry are separate records, joined by “and”; a condition that tells them apart may be missing. Equal entries are not always repeated. Entries after “also recorded” stand apart in the source; their conditions may differ.

Columns and labels:
[1] = test system: Fuchs' endothelial corneal dystrophy patient-derived immortalized corneal endothelial cells; assay: Cell damage inhibitory effect on iFECD stimulated with TGF-β2 (phase contrast microscope); type: cell-based, human
Description: The medium was removed from the culture dish in which Fuchs' endothelial corneal dystrophy patient-derived immortalized corneal endothelial cells (hereinafter, referred to as disease model cells) were being cultured, and the cells were supplemented with 1×PBS (−) that was preheated to 37° C., and were washed. This operation was repeated twice. The cells were supplemented with 1×PBS (−) again and incubated for 5 minutes at 37° C. (5% CO2). After the PBS (−) was removed, the cells were supplemented with 0.05% Trypsin-EDTA (nacalai tesque, 32778-34) and incubated for 5 minutes at 37° C. (5% CO2). The cells were then suspended in a medium, and collected by centrifugation at 1500 rpm for 3 minutes. DMEM (nacalai tesque, 08456-36)+10% FBS (Biowest, S1820-500)+1% P/S (nacalai tesque, 26252-94) was used as the medium. The disease model cells were seeded in a 6-well plate at a rate of 1.5×10^5 cells per well and cultured at 37° C. (5% CO2) for 48 hours. DMEM+10% FBS+1% P/S was used as the medium.
After 48 hours, the medium was removed, and AKP-001, SB203580 (Cayman, 13067), PH-797804 (Selleck Chemicals, S2726) and VX-702 (Selleck Chemicals, 56005) were added to DMEM+2% FBS+1% P/S so that the final concentration was 0.01, 0.03, 0.1, 0.3, 1, 3, 10 and 30 μM, followed by culturing as 24-hour pretreatment. After 24 hours, the medium was removed, and AKP-001, 5B203580 (Cayman, 13067), PH-797804 (Selleck Chemicals, S2726), or VX-702 (Selleck Chemicals, S6005), together with 100 ng/ml Recombinant Human TGF-β2 (R&D systems, RND302-B2-002), were added to DMEM+2% FBS+1% P/S so that the final concentration was 0.01 μM, 0.03 μM, 0.1 μM, 0.3 μM, 1 μM, 3 μM, 10 μM, and 30 μM, followed by culturing for 24 hours. After 24 hours, cell damage was evaluated by observation with a phase contrast microscope. As a control, immortalized corneal endothelial cells that were not stimulated with TGF-β were used.

caspase 3/7 = assay: Caspase-Glo 3/7 Assay in human corneal endothelial cells in the presence of AKP-001; type: cell-based; details: 24 hours
Description: Cultured human corneal endothelial cells were seeded at a rate of 1×10^4 per well in a 96-well plate coated with laminin-511E8, and the cells were cultured until reaching confluence at 37° C. (5% CO^2). For the medium, used was OptiMEM-I (invitrogen, 31985-088)+8% FBS (Thermo, SH30084.03)+5 ng/mL epidermal growth factor (invitrogen, PHG0311)+20 μg/mL L-ascorbic acid 2-sesquimagnesium phosphate hydrate (SIGMA, A8960)+200 mg/L calcium chloride dihydrate (SIGMA, C7902)+0.08% chondroitin sulfate (Wako Pure Chemical Industries, Ltd., 032-14613)+50 μg/mL gentamicin (invitrogen, 15710-064)+1 μM SB431542 (WAKO, 192-16541)+10 μM SB203580 (Cayman, 13067).
Upon reaching confluence, the culturing was further conducted for one more week with OptiMEM-I (invitrogen, 31985-088)+8% FBS (Thermo, SH30084.03)+20 μg/mL+200 mg/L calcium chloride dihydrate (SIGMA, C7902)+0.08% chondroitin sulfate (Wako Pure Chemical Industries, Ltd., 032-14613)+50 μg/mL gentamicin (invitrogen, 15710-064).
After one week, the medium was removed, and a medium with 0.1 μM, 0.3 μM, 1 μM, 3 μM, 10 μM, 30 μM and 100 μM AKP-001 included therein was added, followed by culturing for 24 hours. For the medium, used was OptiMEM-I (invitrogen, 31985-088)+8% FBS (Thermo, SH30084.03)+20 μg/mL+200 mg/L calcium chloride dihydrate (SIGMA, C7902)+0.08% chondroitin sulfate (Wako Pure Chemical Industries, Ltd., 032-14613)+50 μg/mL gentamicin (invitrogen, 15710-064).
After the observation, the caspase 3/7 activity was measured by Caspase-Glo 3/7 Assay according to the following procedure. The medium was discarded to 50 μl per well, and Caspase Glo 3/7 Assay Reagent (mixture of Caspase-Glo 3/7 Assay Buffer and Caspase-Glo 3/7 Assay Substrate) (Promega, G8091) solution was added to the 50 μl/well to reach 1:1 with the medium. The operations from this point on were conducted while light was blocked. […] After standing, 80 μl was transferred to an Assay plate (Corning, 3912, Assay plate 96 well, white polystyrene), and the […] was measured using GloMax-Multi Detection System (Promega, E7051).

rabbits = assay: Eye irritation testing (AKP-001 instillation); type: in vivo, rabbit
Description: Rabbits that met the above criteria were used in the testing. The testing was carried out using a total of 4 rabbits. Fifty μl of 0.1 mM AKP-001 was instilled into the right eyes of the rabbits, and the eyes were maintained in a closed state for 30 seconds. The left eyes were instilled with a vehicle in the same manner. This operation was performed every 30 minutes and 10 times in total.
The anterior eye part was observed before and after the instillation using a slit lamp microscope (SL-D7, Topcon). The anterior eye part was stained with fluorescein sodium test paper (Showa Yakuhin Kako Co., Ltd.) and observed with a slit lamp microscope with regard to the presence or absence of corneal epithelial disorder. Further, the corneal thickness, corneal shape, and corneal volume thereof were analyzed using Pentacam® HR (OCULUS). The corneal endothelium was observed using a scanning slit-type, contact-type corneal endothelium specular microscope (Konan Medical, Inc.). Further, the central corneal thickness was measured using an ultrasonic pachymeter (SP-100, Tomey Corporation), and the intraocular pressure was measured using Tonovet® (ME Technica).
Corneal transparency was evaluated by the following Grading.
Opacity: degree of turbidity (the most turbid area is read.)

[2] = prior to and after 10 instillations

O=C(Cc1c(F)cccc1Cl)Nc1onc(-c2ccc(F)cc2)c1-c1ccncn1 [AKP-001, 5-[(2-chloro-6-fluorophenyl)acetylamino]-3-(4-fluorophenyl)-4-(4-pyrimidinyl)isoxazole]
damage inhibitory effect for the corneal endothelial cells ([1]; 0.01 μM): observed | disorder in the corneal endothelial cells ([1]; 0.1 μM, 0.3 μM, 1 μM and 3 μM, iFECD, pretreatment, TGF-β2 stimulation): effectively suppressed | cell damage inhibitory effect for the corneal endothelial cells ([1]; at sub-μM): exerted an inhibitory effect; also recorded: able to suppress cell damage | caspase 3/7 activity compared to the control group (caspase 3/7; 0.1 μM, 0.3 μM, 1 μM and 3 μM): no significant difference | caspase 3/7 activity compared to the control group (caspase 3/7; 10 μM, 30 μM and 100 μM): significantly activated | concentrations at which no damage to the cells is caused (caspase 3/7): ≤ 10 µM | corneal thickness (Pentacam HR) (rabbits; 0.1 mM instilled 10 times): No obvious changes | epithelial disorder of the keratoconjunctiva, fluorescein staining (rabbits; 0.1 mM instilled 10 times): no epithelial disorder of the stained keratoconjunctiva was observed | hyperemia (rabbits; 0.1 mM instilled 10 times): no hyperemia was observed | inflammation of the anterior eye part (rabbits; 0.1 mM instilled 10 times): no inflammation or the like was observed; also recorded: no inflammation of the anterior eye part was observed | shape of the cornea (Scheimpflug images) (rabbits; 0.1 mM instilled 10 times): No obvious change | corneal endothelium, specular microscope images (rabbits; 10 instillations): No obvious changes | cornea, slit lamp microscope (rabbits; 50 μl of 0.1 mM instilled 10 times every 30 minutes): transparent | corneal transparency score (rabbits; before and after 10 instillations, all the corneas): zero and 0 | central corneal thickness (ultrasonic pachymeter) (rabbits; [2]): No significant changes | corneal volume (10 mm diameter, Pentacam HR) (rabbits; [2]): No significant changes | intraocular pressure (Tonovet) (rabbits; [2]): No significant changes
